# ChEMBL document CHEMBL1146688, “Aminoimidazoles as bioisosteres of acylguanidines: novel, potent, selective and orally bioavailable inhibitors of the sodium hydrogen exchanger isoform-1” (Bioorg Med Chem Lett, 2004)
# pIC50: −log10 of the molar value.
# What was measured:
# [1] = target: Sodium/hydrogen exchanger 1 (Homo sapiens, UniProt P19634); experiment: Inhibition of sodium dependent recovery of pH following imposed acidosis in AP1 cell line expressing the human NHE-1 isoform.; assay type: functional, cell-based
# [2] = Plasma half life in rat at oral dose 2.8 mg/mk body weight; assay type: ADME, organism-based
# [3] = Oral bioavailability in rat (dose 2.8 mg/kg p.o.); assay type: ADME, organism-based; details: in vivo
# Sequence of Sodium/hydrogen exchanger 1 (P19634 whole entry, canonical isoform): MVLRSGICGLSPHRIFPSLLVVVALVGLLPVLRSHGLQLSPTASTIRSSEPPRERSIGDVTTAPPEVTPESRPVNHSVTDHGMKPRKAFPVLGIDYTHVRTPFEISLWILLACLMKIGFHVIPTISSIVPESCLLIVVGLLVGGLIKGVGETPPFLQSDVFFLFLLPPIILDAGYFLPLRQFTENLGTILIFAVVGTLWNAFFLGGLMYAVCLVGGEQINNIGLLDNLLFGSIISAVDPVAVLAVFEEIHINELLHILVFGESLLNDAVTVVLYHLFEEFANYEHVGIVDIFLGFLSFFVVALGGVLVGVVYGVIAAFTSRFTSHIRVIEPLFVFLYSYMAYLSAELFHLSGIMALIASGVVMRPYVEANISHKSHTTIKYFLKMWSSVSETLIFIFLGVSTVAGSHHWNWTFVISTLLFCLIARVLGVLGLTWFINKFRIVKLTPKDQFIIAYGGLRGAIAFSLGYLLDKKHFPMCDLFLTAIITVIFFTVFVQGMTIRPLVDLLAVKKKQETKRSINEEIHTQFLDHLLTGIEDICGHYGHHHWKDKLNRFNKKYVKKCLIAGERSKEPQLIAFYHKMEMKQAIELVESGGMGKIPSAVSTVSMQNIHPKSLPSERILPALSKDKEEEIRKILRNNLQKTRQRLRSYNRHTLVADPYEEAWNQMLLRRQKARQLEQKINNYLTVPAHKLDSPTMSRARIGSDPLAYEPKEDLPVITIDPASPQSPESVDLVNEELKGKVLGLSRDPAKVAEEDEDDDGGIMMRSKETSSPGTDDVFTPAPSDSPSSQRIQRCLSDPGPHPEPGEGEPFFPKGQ
Compound,pIC50 [1],half-life [2],bioavailability [3]
CC1(C)[C@H](c2c[nH]cn2)[C@H]1c1cccc2c1CCO2,< 4.52,,
Cc1[nH]c(N)nc1[C@@H]1[C@@H](c2cccc3c2CCO3)C1(C)C,5.59,,
CC1(C)[C@H](c2cnc(N)s2)[C@H]1c1cccc2c1CCO2,< 4.52,,
CSc1nccn1[C@@H]1[C@@H](c2cccc(Cl)c2)C1(C)C,5.31,,
CC1(C)[C@H](c2c[nH]c(N)n2)[C@H]1c1cccc2c1CCO2,5.42,,
CC1(C)[C@H](c2nc(N)no2)[C@H]1c1cccc2c1CCO2,4.52,,
Cc1[nH]cnc1[C@@H]1[C@@H](c2cccc3c2CCO3)C1(C)C,4.96,,
"CC1(C)C(c2cccc(Cl)c2)[C@H]1C(=O)NC(=N)N (single isomer, unassigned)",7.68,5 h,26%
"Cc1[nH]cnc1[C@@H]1C(c2cc(Cl)cc(Cl)c2)C1(C)C (single isomer, unassigned)",6.02,,
"CC1(C)C(c2cc(Cl)cc(Cl)c2)[C@H]1c1cnc(N)s1 (single isomer, unassigned)",< 4.52,,
"CC1(C)C(c2cc(Cl)cc(Cl)c2)[C@H]1c1c[nH]c(N)n1 (single isomer, unassigned)",6.74,,
"CC1(C)C(c2cc(Cl)cc(Cl)c2)[C@H]1c1cc(N)nc(N)n1 (single isomer, unassigned)",5.44,,
"CC1(C)C(c2cccc(Cl)c2)[C@H]1c1cnc(N)s1 (single isomer, unassigned)",5.10,,
"CC1(C)C(c2cccc(Cl)c2)[C@H]1c1c[nH]c(N)n1 (single isomer, unassigned)",6.12,,
"Cc1[nH]c(N)nc1[C@@H]1C(c2cc(Cl)cc(Cl)c2)C1(C)C (single isomer, unassigned)",8.10,,
"CC1(C)C(c2cc(Cl)cc(Cl)c2)[C@H]1c1cnc[nH]1 (single isomer, unassigned)",5.40,,
"Cc1nc(N)[nH]c1[C@@H]1C(c2cccc(Cl)c2)C1(C)C (single isomer, unassigned)",7.41,5 h,26%
